Values quoted from earlier work in patent US12692503B2, “Generation of acyl amino acids” (Modular Genetics, Inc., priority 2007, dated 2026).
*1 amine or outer side, *2 acyl side, *3 side chain or, on linkers, in order; H or OH if unused. Where a SMILES comes first, the peptide text is derived from it. Bridges are numbered along the chain shown (N, C = ends). [ ]: non-standard residue; d: D form. X1 = CC(C)CCCCCCCCC[C@H](CC(=O)[*:1])O[*:2]

Settings: organic solvents and water

## CC(C)CCCCCCCCC[C@@H]1CC(=O)N[C@@H](CCC(=O)O)C(=O)N[C@@H](CC(C)C)C(=O)N[C@H](CC(C)C)C(=O)N[C@@H](C(C)C)C(=O)N[C@@H](CC(=O)O)C(=O)N[C@H](CC(C)C)C(=O)N[C@@H](CC(C)C)C(=O)O1 [surfactin] (EL[dL]VD[dL]L; linker N-C via X1)
  solubility: soluble in both organic solvents and water
